Experimental data as given in patent US20230119894A1, “THERAPEUTIC OR PROPHYLACTIC METHOD FOR DIABETES USING COMBINATION MEDICINE” (Japan Tobacco Inc., priority 2019, published 2023).
“And” between values parts separate entries of the source, which are not always exact repeats. Identical values can stand only once. Marks after values point to notes of the source that are not given here.

Assays:
[1] = system: Salmonella typhimurium TA98; assay: Ames test (reverse mutation test), TA98; settings: TA98
Procedure: (§1) Metabolites 1, 3, and 5 and Metabolites C to H were each tested herein. The purpose of this test is to evaluate the potential of each metabolite to induce reverse mutations in the standard strains of Salmonella typhimurium (TA98, TA1537, TA100, and TA1535) and Escherichia coli (WP2uvrA), in either the presence or absence of a rat liver metabolic activation system (S9 mix).
(§2) The solvent used herein was dimethyl sulfoxide (DMSO, 100 μL/plate).
(§3) The test was performed by the pre-incubation method with or without S9 mix. When the test was performed without S9 mix, sodium phosphate buffer solution (pH 7.4) was added.
(§4) 0.5 mL of S9 mix or 0.5 mL of 0.1 mol/L sodium phosphate buffer solution (pH 7.4), and 0.1 mL of the bacterial culture solution were added to a test tube containing 0.1 mL of the negative control formulation (DMSO alone), the metabolite, or the positive control formulation. The mixtures were pre-incubated at 37° C. for 20 minutes while shaking. After the pre-incubation period, 2 mL of top agar were added and the mixtures were vortex-mixed and seeded onto plates. Two plates per treatment were used. Each plate was incubated at 37±1° C. for 48 hours or more and the revertant colonies were counted. The mean number of revertant colonies for each treatment plate was then calculated. […] Evaluation was based on mean values with no statistical comparisons being used.

[2] = system: Salmonella typhimurium TA1535; assay: Ames test (reverse mutation test), TA1535
Procedure: as §1, §2, §3, §4

[3] = system: Salmonella typhimurium TA1537; assay: Ames test (reverse mutation test), TA1537; settings: TA1537
Procedure: as §1, §2, §3, §4

[4] = system: Salmonella typhimurium TA100; assay: Ames test (reverse mutation test), TA100; settings: TA100
Procedure: as §1, §2, §3, §4

[5] = system: Escherichia coli WP2uvrA; assay: Ames test (reverse mutation test), WP2uvrA; type: cell-based; settings: WP2uvrA

With Nc1ccc2cc3ccccc3cc2c1 [Example 2AA, 2-Aminoanthracene, reference compound] the “Number of revertant colonies” value ([1]; S9 mix +, 0.5 μg/plate (positive control)) was 289, the “Number of revertant colonies” value ([2]; S9 mix +, 2.0 μg/plate (positive control)) was 223 and 146 and 250 and the “Number of revertant colonies” value ([3]; S9 mix +, 2 μg/plate (positive control)) was 135.

Cl.Nc1c2ccccc2nc2ccccc12.O [Example 9AA, 9-Aminoacridine hydrochloride monohydrate, reference compound] was tested, and the “Number of revertant colonies” value ([3]; S9 mix −, 80 μg/plate (positive control)) was 372.

In the case of CC(C)(C)Oc1cc(F)cc(-c2cc(N)nn2C(F)(F)F)c1 [Metabolite 1], the “Number of revertant colonies” value ([4]; S9 mix +, 185 μg/plate) is reported as 78*, the “Number of revertant colonies” value ([4]; S9 mix +, 556 μg/plate) is reported as 59* and the “Number of revertant colonies” value ([4]; S9 mix +, 1667 μg/plate) is reported as 50*. For the same compound, the “Number of revertant colonies” value ([4]; S9 mix +, 5000 μg/plate) was 52*, the “Number of revertant colonies” value ([4]; S9 mix −, 185 μg/plate) was 38* and the “Number of revertant colonies” value ([4]; S9 mix −, 556 μg/plate) was 0*. For the same compound, the “Number of revertant colonies” value ([4]; S9 mix −, 1667 μg/plate) was 0*, the “Number of revertant colonies” value ([4]; S9 mix −, 5000 μg/plate) was 0* and the “Number of revertant colonies” value ([1]; S9 mix +, 185 μg/plate) was 16*. For the same compound, the “Number of revertant colonies” value ([1]; S9 mix +, 556 μg/plate) was 15*, the “Number of revertant colonies” value ([1]; S9 mix +, 1667 μg/plate) was 13* and the “Number of revertant colonies” value ([1]; S9 mix +, 5000 μg/plate) was 13*. For the same compound, the “Number of revertant colonies” value ([1]; S9 mix −, 185 μg/plate) was 9*, the “Number of revertant colonies” value ([1]; S9 mix −, 556 μg/plate) was 0* and the “Number of revertant colonies” value ([1]; S9 mix −, 1667 μg/plate) was 0*. The “Number of revertant colonies” value ([1]; S9 mix −, 5000 μg/plate) was 0*, the “Number of revertant colonies” value ([5]; S9 mix +, 185 μg/plate) was 16* and the “Number of revertant colonies” value ([5]; S9 mix +, 556 μg/plate) was 18*. The “Number of revertant colonies” value ([5]; S9 mix +, 1667 μg/plate) was 9*, the “Number of revertant colonies” value ([5]; S9 mix +, 5000 μg/plate) was 0* and the “Number of revertant colonies” value ([5]; S9 mix −, 185 μg/plate) was 15*. The “Number of revertant colonies” value ([5]; S9 mix −, 556 μg/plate) was 8*, the “Number of revertant colonies” value ([5]; S9 mix −, 1667 μg/plate) was 5* and the “Number of revertant colonies” value ([5]; S9 mix −, 5000 μg/plate) was 0*. For the same compound, the “Number of revertant colonies” value ([2]; S9 mix +, 185 μg/plate) was 5*, the “Number of revertant colonies” value ([2]; S9 mix +, 556 μg/plate) was 4* and the “Number of revertant colonies” value ([2]; S9 mix +, 1667 μg/plate) was 4*. The “Number of revertant colonies” value ([2]; S9 mix +, 5000 μg/plate) was 2*, the “Number of revertant colonies” value ([2]; S9 mix −, 185 μg/plate) was 0* and the “Number of revertant colonies” value ([2]; S9 mix −, 556 μg/plate) was 0*. For the same compound, the “Number of revertant colonies” value ([2]; S9 mix −, 1667 μg/plate) was 0*, the “Number of revertant colonies” value ([2]; S9 mix −, 5000 μg/plate) was 0* and the “Number of revertant colonies” value ([3]; S9 mix +, 185 μg/plate) was 2*. For the same compound, the “Number of revertant colonies” value ([3]; S9 mix +, 556 μg/plate) was 0*, the “Number of revertant colonies” value ([3]; S9 mix +, 1667 μg/plate) was 0* and the “Number of revertant colonies” value ([3]; S9 mix +, 5000 μg/plate) was 0*. For the same compound, the “Number of revertant colonies” value ([3]; S9 mix −, 185 μg/plate) was 0*, the “Number of revertant colonies” value ([3]; S9 mix −, 556 μg/plate) was 0* and the “Number of revertant colonies” value ([3]; S9 mix −, 1667 μg/plate) was 0*. For the same compound, the “Number of revertant colonies” value ([3]; S9 mix −, 5000 μg/plate) was 0*.
